Measured values as given in publication PMC8100446, “Perillaldehyde Inhibition of cGAS Reduces dsDNA-Induced Interferon Response” (Frontiers in Immunology, 2021).

Target: T1, cyclic GMP-AMP synthase (cGAS) (Homo sapiens, UniProt Q8N884)
T1 construct: purified recombinant full-length cGAS
Experiment: in vitro cGAS enzymatic assay, cGAMP production measured by HPLC-MS
Assay type: biochemical

T1 sequence (Q8N884 whole entry): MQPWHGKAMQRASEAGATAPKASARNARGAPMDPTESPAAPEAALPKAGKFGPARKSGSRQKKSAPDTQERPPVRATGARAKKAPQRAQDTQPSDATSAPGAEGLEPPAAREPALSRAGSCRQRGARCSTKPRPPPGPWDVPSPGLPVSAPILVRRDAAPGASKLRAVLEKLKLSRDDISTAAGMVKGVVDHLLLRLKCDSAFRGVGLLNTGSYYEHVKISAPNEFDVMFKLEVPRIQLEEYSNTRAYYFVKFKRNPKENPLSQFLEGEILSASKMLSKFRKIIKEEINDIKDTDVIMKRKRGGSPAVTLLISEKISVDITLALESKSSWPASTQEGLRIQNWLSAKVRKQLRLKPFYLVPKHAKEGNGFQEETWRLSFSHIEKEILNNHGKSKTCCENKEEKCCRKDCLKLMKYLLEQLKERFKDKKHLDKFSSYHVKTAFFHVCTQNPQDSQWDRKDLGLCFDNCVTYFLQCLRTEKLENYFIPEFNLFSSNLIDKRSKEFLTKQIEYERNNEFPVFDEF

C=C(C)C1CC=C(C=O)CC1 (stereo not shown) [PAH, perillaldehyde]
IC50: 31.3 µM
